Patent US11744819B2, “Antibiotic cannabinoid-terpene formulations” (priority 2019, dated 2023)
In brackets after ≈: the same amount, converted by molar mass. Several values for one entry are separate records, joined by “and”; a condition that tells them apart may be missing. Identical values can stand only once. Like-named read-outs stand apart in the source and are kept apart here.

Key:
E. faecium 3303 = test: microbe, parasite or virus in culture; format: cell-based, Enterococcus faecium; details: for MIC Alone / MIC: compound alone in checkerboard; for Max. fold change in MIC: decrease; for MIC: Enterococcus faecium, 3303, read-out: MIC Alone, E. faecium 3303
From the text: In therapeutic applications, synergy between active ingredients occurs when an observed combined therapeutic effect is greater than the sum of therapeutic effects of individual active ingredients, or a new therapeutic effect is produced that the active ingredients could not produce alone. […] In this context, the enhancement of therapeutic effect may take the form of increased efficacy or potency and/or decreased adverse effects. The synergistic effect may be mediated in whole or in part by the pharmacokinetics and/or pharmacodynamics of the active ingredients in a subject, so that the amount and proportion of the ingredients in the formulation may be synergistic in vivo. This in vivo synergy may be effected with a formulation that includes the active ingredients in amounts and proportions that are also synergistic in in vitro assays of efficacy. As used herein, the term “synergistically effective amounts” accordingly refers to amounts that are synergistic in vivo and/or in vitro. A numeric quantification of synergy is often expressed as a fractional inhibitory concentration index (FICI), which represents the sum of the fractional inhibitory concentrations (FICs) of each drug tested, where the FIC is determined for each drug by dividing the minimum inhibitory concentration (MIC, the lowest concentration of the drug which prevents visible growth of the bacterium in a standard in vitro assay-standard colorometric assay based on resazurin) of each drug when used in combination by the MIC of each drug when used alone. In very general terms, a FICI lower or higher than 1 indicates positively correlated activity (at least additive or potentiation) or an absence of positive interactions, respectively. More definitively, synergy of two compounds may be conservatively defined as a FICI of ::::0.5 (see Odds, 2003; with additivity or potentiation corresponding to a FICI of >0.5 to ::::0.75; no interaction (indifference) corresponding to a FICI of >1 to ::::4; and antagonism corresponding to a FICI of >>4). Synergy of three compounds has been defined as a FICI of ::::1.0. (Berenbaum, 1978; Yu et al., 1980). To estimate the optimal concentrations in triple combinations, the optimal concentrations of trans-caryophyllene and cannabinoid were utilized in combination with a series of daptomycin dilutions.
Pre-cultures of bacteria growing in their corresponding liquid media (defined below) were diluted to an 00600 of 0.0025 and 100 μl was added to 100 μl of medium containing serial 2-fold dilutions of cannabinoid (cannabinoid stocks, in methanol or acetonitrile for acidic forms, were diluted in growth medium) in 96-well plates. Plates were then incubated for 20-24 h at 37° C., and growth was recorded as 00600 in a Thermo Scientific™ Varioskan™ Flash Multimode Reader.
Method for Tables 4-7. Interaction of Cannabinoids CBC, CBD and CBG with Terpenes and Daptomycin:
FICI values was determined in a 96 well checkerboard format using the MIC assay for cannabinoids (compound A), terpenes (compound B), and daptomycin (compound C) alone and in combinations. Terpene stocks were prepared in DMSO and diluted in the growth medium. The fractional inhibitory concentration for each compound was calculated as follows: FICA=(MIC of compound A in the presence of compound B)/(MIC of compound A alone). Similarly, the FICs for compounds Band C were calculated. The FICI was calculated as FICA plus FICs plus FICc.

[1] = system: Mycobacterium tuberculosis H37Rv; test: MIC determination (PrestoBlue); format: cell-based; details: Mycobacterium tuberculosis, H37RV
Enterococcus faecalis = test: MIC determination; format: cell-based
[2] = system: E. faecium clinical isolate 58C9 (vancomycin and daptomycin resistant); details: for Fold reduction in daptomycin MIC in combination with the cannabinoid: E. faecium isolate 58c9; for MIC: clinical enterococcal strain 58C9, vancomycin and daptomycin resistant
[3] = system: Enterococcus faecium 33D3; test: microbe, parasite or virus in culture
[4] = system: E. faecium clinical isolate 55A6 (vancomycin and daptomycin resistant); test: microbe, parasite or virus in culture; details: Enterococcus faecium
[5] = system: E. faecium clinical isolate 58C9 (vancomycin and daptomycin resistant); test: microbe, parasite or virus in culture; details: Enterococcus faecium
[6] = system: Enterococcus faecium 33D3; details: for Fold reduction in daptomycin MIC in combination with the cannabinoid: E. faecium isolate 3303; for MIC: clinical enterococcal strain 3303
[7] = system: Staphylococcus aureus MRSA; test: microbe, parasite or virus in culture; format: cell-based
[8] = system: E. faecium clinical isolate 55A6 (vancomycin and daptomycin resistant); details: for Fold reduction in daptomycin MIC in combination with the cannabinoid: E. faecium isolate 55a6
[9] = system: Mycobacterium abscessus ATCC 19977; test: MIC determination (resazurin); format: cell-based; details: Mycobacteroides abscessus, ATCC19977
[10] = system: E. faecium strains 3303, 69C6, 58C9 and 55A6; test: Kill curves (CFU by serial dilution); format: cell-based, Enterococcus faecium; details: for kinetics of E. faecium killing: at equal concentrations of CBD, CBG, or CBC; for kinetics of E. faecium killing / bactericidal activity (viability, CFU): FIG. 1; for bactericidal activity (viability, CFU): cannabinoid alone, 1x-4x MIC, planktonic E. faecium; for growth and CFU in combination with daptomycin: ½×MIC of cannabinoid with 1×-⅛×MIC of daptomycin, strains 3303, 58C9, 55A6
[11] = system: Streptococcus pyogenes ATCC 51878; test: MIC determination; format: cell-based; details: ATCC51878
[12] = system: Staphylococcus epidermidis ATCC 14990; test: MIC determination; format: cell-based; details: ATCC14990
[13] = system: E. faecium clinical isolate 69C6 (vancomycin resistant); test: microbe, parasite or virus in culture; details: Enterococcus faecium
[14] = E. faecium 3303, pairwise, with daptomycin
[15] = E. faecium 3303, pairwise, with trans-caryophyllene
[16] = E. faecium 3303, triple, with daptomycin and trans-caryophyllene
[17] = 33D3, Enterococcus faecium 33D3 (Table 1)
[18] = 33D3, clinical enterococcal strain 3303
[19] = E. faecium 3303, pairwise, with CBC
[20] = E. faecium 3303, pairwise, with CBD
[21] = E. faecium 3303, pairwise, with CBG
[22] = E. faecium 3303, text b61, Table 5
[23] = E. faecium 3303, triple, with CBC and trans-caryophyllene
[24] = E. faecium 3303, triple, with CBG and trans-caryophyllene

## CCCCCc1cc(O)c2c(c1)OC(C)(CCC=C(C)C)C=C2 (centres unmarked) [CBC, cannabichromene]
E. faecium 3303; E. faecium 3303
  MIC Alone: 2 µg/mL
E. faecium 3303; [14]
  MIC In combination: 0.5 µg/mL
  Max. fold change in MIC: 4 l fold
E. faecium 3303; [15]
  MIC In combination: 0.125 µg/mL
  Max. fold change in MIC: 16 l fold
E. faecium 3303; [16]
  MIC In combination: 0.25 µg/mL
  Max. fold change in MIC: 8 l fold
E. faecium 3303
  MIC: 1 µg/mL
[1]; Media 7H9, read-out: MIC
  MIC: 8 µg/mL (≈ 25.4 µM)
[1]; Media PB, read-out: MIC
  MIC: 4 µg/mL (≈ 12.7 µM)
Enterococcus faecalis
  MIC: 2 µg/mL (≈ 6.36 µM)
[2]
  Fold reduction in daptomycin MIC in combination with the cannabinoid: 8 Fold
[3]; [17]
  MIC: 1 to 2 µg/mL (≈ 3.18 to 6.36 µM)
[3]; [18]
  MIC: 1 µg/mL (≈ 3.18 µM)
[4]
  MIC: 1 µg/mL (≈ 3.18 µM)
[5]
  MIC: 1 µg/mL (≈ 3.18 µM)
[6]
  Fold reduction in daptomycin MIC in combination with the cannabinoid: 128 Fold
[7]
  MIC: 4 µg/mL (≈ 12.7 µM)
[8]
  Fold reduction in daptomycin MIC in combination with the cannabinoid: 512 Fold
[9]
  MIC: 4 µg/mL (≈ 12.7 µM)
[10]
  kinetics of E. faecium killing: faster than for CBO
  bactericidal activity (viability, CFU): bactericidal
  growth and CFU in combination with daptomycin: significantly inhibited growth of all strains and reduced CFU
[11]; Streptococcus pyogenes
  MIC: 1 µg/mL (≈ 3.18 µM)
[12]; Staphylococcus epidermidis
  MIC: 4 µg/mL (≈ 12.7 µM)
[13]
  MIC: 1 µg/mL (≈ 3.18 µM)

## C=C(C)[C@@H]1CCC(C)=C[C@H]1c1c(O)cc(CCCCC)cc1O [CBD, cannabidiol, reference compound]
E. faecium 3303; E. faecium 3303
  MIC Alone: 2 µg/mL
E. faecium 3303; [14]
  MIC In combination: 1 µg/mL
  Max. fold change in MIC: 4″′ fold
E. faecium 3303; [15]
  MIC In combination: 0.125 µg/mL
  Max. fold change in MIC: 16″′ fold
E. faecium 3303; [16]
  MIC In combination: 0.5 µg/mL
  Max. fold change in MIC: 4 fold
E. faecium 3303
  MIC: 4 µg/mL
[1]; Media 7H9, read-out: MIC
  MIC: 16 µg/mL (≈ 50.9 µM)
[1]; Media PB, read-out: MIC
  MIC: 4 µg/mL (≈ 12.7 µM)
Enterococcus faecalis; read-out: MIC
  MIC: 2 µg/mL (≈ 6.36 µM)
[3]; [17]
  MIC: 1 to 2 µg/mL (≈ 3.18 to 6.36 µM)
[3]; [18]
  MIC: 1 µg/mL (≈ 3.18 µM)
[4]
  MIC: 2 µg/mL (≈ 6.36 µM)
[5]
  MIC: 1 µg/mL (≈ 3.18 µM)
[7]; read-out: MIC
  MIC: 2 µg/mL (≈ 6.36 µM)
[9]; Mycobacterium abscessus ATCC 19977, read-out: MIC
  MIC: 16 µg/mL (≈ 50.9 µM)
[10]
  bactericidal activity (viability, CFU): bactericidal
  growth and CFU in combination with daptomycin: significantly inhibited growth of all strains and reduced CFU
[11]; Streptococcus pyogenes ATCC 51878, read-out: MIC
  MIC: 1 µg/mL (≈ 3.18 µM)
[12]; Staphylococcus epidermidis ATCC 14990, read-out: MIC
  MIC: 2 µg/mL (≈ 6.36 µM)
[13]
  MIC: 1 µg/mL (≈ 3.18 µM)

## CCCCCc1cc(O)c(C/C=C(\C)CCC=C(C)C)c(O)c1 [CBG, cannabigerol]
E. faecium 3303; [14]
  MIC In combination: 0.125 µg/mL
  Max. fold change in MIC: 32″′ fold
E. faecium 3303; [15]
  MIC In combination: 0.125 µg/mL
  Max. fold change in MIC: 16″′ fold
E. faecium 3303; [16]
  MIC In combination: 0.25 µg/mL
  Max. fold change in MIC: 4 fold
[1]; Media 7H9, read-out: MIC
  MIC: 2 µg/mL (≈ 6.32 µM)
[1]; Media PB, read-out: MIC
  MIC: 2 µg/mL (≈ 6.32 µM)
Enterococcus faecalis
  MIC: 1 µg/mL (≈ 3.16 µM)
[2]
  Fold reduction in daptomycin MIC in combination with the cannabinoid: 64 Fold
[3]; [17]
  MIC: 1 to 2 µg/mL (≈ 3.16 to 6.32 µM)
[3]; [18]
  MIC: 1 µg/mL (≈ 3.16 µM)
[4]
  MIC: 1 µg/mL (≈ 3.16 µM)
[5]
  MIC: 1 µg/mL (≈ 3.16 µM)
[6]
  Fold reduction in daptomycin MIC in combination with the cannabinoid: 32 Fold
[7]
  MIC: 1 µg/mL (≈ 3.16 µM)
[8]
  Fold reduction in daptomycin MIC in combination with the cannabinoid: 4 Fold
[9]
  MIC: 2 µg/mL (≈ 6.32 µM)
[10]
  kinetics of E. faecium killing: faster than for CBO
  bactericidal activity (viability, CFU): bactericidal
  growth and CFU in combination with daptomycin: significantly inhibited growth of all strains and reduced CFU
[11]; Streptococcus pyogenes
  MIC: 1 µg/mL (≈ 3.16 µM)
[12]; Staphylococcus epidermidis
  MIC: 1 to 2 µg/mL (≈ 3.16 to 6.32 µM)
[13]
  MIC: 1 µg/mL (≈ 3.16 µM)

## CCCCCCCCCC(=O)N[C@@H](Cc1c[nH]c2ccccc12)C(=O)N[C@H](CC(N)=O)C(=O)N[C@@H](CC(=O)O)C(=O)N[C@@H]1C(=O)NCC(=O)N[C@@H](CCCN)C(=O)N[C@@H](CC(=O)O)C(=O)N[C@H](C)C(=O)N[C@@H](CC(=O)O)C(=O)NCC(=O)N[C@H](CO)C(=O)N[C@@H]([C@H](C)CC(=O)O)C(=O)N[C@@H](CC(=O)c2ccccc2N)C(=O)O[C@@H]1C [Daptomycin, daptomycin, reference compound]
E. faecium 3303; E. faecium 3303
  MIC Alone: 8 µg/mL
E. faecium 3303; E. faecium 3303, listed as daptomycin
  MIC Alone: 4 µg/mL
E. faecium 3303; [19]
  MIC In combination: 0.03125 µg/mL
  Max. fold change in MIC: 128 l fold
E. faecium 3303; E. faecium 3303, pairwise, with CBC, listed as daptomycin
  Max. fold change in MIC: 128 fold
E. faecium 3303; [20]
  MIC In combination: 0.25 µg/mL
  Max. fold change in MIC: 16″′ fold
E. faecium 3303; [21]
  MIC In combination: 0.25 µg/mL
  Max. fold change in MIC: 32″′ fold
E. faecium 3303; [15]
  MIC In combination: 0.5 µg/mL
  Max. fold change in MIC: 8 l fold and 8″′ fold
E. faecium 3303; [22]
  MIC of daptomycin (alone): 8 µg/mL
  MIC of daptomycin in the presence of CBO and trans caryophyllene: 0.03 µg/mL
E. faecium 3303; [23]
  MIC In combination: 4 µg/mL
  Max. fold change in MIC: 2 l fold
E. faecium 3303; E. faecium 3303, triple, with CBD and trans-caryophyllene
  MIC In combination: 0.03 µg/mL
E. faecium 3303; E. faecium 3303, triple, with CBD and trans-caryophyllene, listed as daptomycin
  Max. fold change in MIC: 256 fold
E. faecium 3303; [24]
  MIC In combination: 2 µg/mL
  Max. fold change in MIC: 4 l fold
[2]
  MIC: 8 µg/mL (≈ 4.94 µM)
[2]; listed as daptomycin
  MIC: 4 µg/mL (≈ 2.47 µM)
[6]
  MIC: 2 µg/mL (≈ 1.23 µM)
[6]; listed as daptomycin
  MIC: 1 µg/mL (≈ 0.617 µM)
[8]; clinical enterococcal strain 55A6, vancomycin and daptomycin resistant
  MIC: 8 µg/mL (≈ 4.94 µM)
[10]; daptomycin alone at 1×MIC (growth inhibited)
  reduction in CFU: no reduction in CFU
[10]; single agent at ½×MIC, all strains (3303, 58C9, 55A6)
  inhibition of growth: effectively no inhibition of growth
